From US8841302B2, “HCV inhibitor and therapeutic agent combinations” (PTC Therapeutics, Inc., priority 2009, dated 2014)

System: HCV replicon RNA in replicon cells
Test: Replicon RNA response to antiviral agent(s), real time PCR (Taqman assay)
Format: cell-based
Conditions: replicon cells treated 3 days
Method: Replicon cells were seeded at ˜5000 cells/well in 96-well collagen I-coated Biocoat plates (Becton Dickinson). At 24 hrs post-seeding, a series of replicon cells were treated with a HCV protease inhibitor and a HCV inhibitor. The final concentration of DMSO was 0.5%, fetal bovine serum was 10%, and G418 (an aminoglycoside used as a selective agent) was 500 μg/mL.
To each concentration of Compound 10p, HCV inhibitor Compound 31 was titrated. After 3 days, the cells were washed with PBS and lysed in 1× Cell Lysis Buffer (Ambion cat #8721).
The replicon RNA level was measured using real time PCR (Taqman assay). The ampicon was located in NS5b. The PCR primers used were: 5B.2F, ATGGACAGGCGCCCTGA (SEQ ID NO: 1); 5B.2R, […] (SEQ ID NO: 2); the probe sequence was FAM-labeled CACGCCATGCGCTGCGG (SEQ ID NO: 3). GAPDH RNA was used as endogenous control and was amplified in the same reaction as NS5b (multiplex PCR) using primers and VIC-labeled probe recommended by the manufacturer (PE Applied Biosystem). The real-time RT-PCR reactions were run on ABI PRISM 7900HT Sequence Detection System using the following program: 48° C. for 30 min, 95° C. for 10 min, 40 cycles of 95° C. for 15 sec, 60° C. for 1 min. The ΔCT values (CT5B-CTGAPDH) were plotted against test compound concentration and fitted to the sigmoid dose response model using Graphpad PRISM software (Graphpad Software Inc.). The half maximal inhibitory concentration (IC50) is the concentration necessary to achieve ΔCT=1 over the projected baseline. The 90% maximal inhibitory concentration (IC90) is the concentration necessary to achieve ΔCT=3.2 over the baseline. Alternatively, to quantitate the absolute amount of replicon RNA, a standard curve was established by including serially diluted T7 transcripts of replicon RNA in the Taqman assay. All Taqman reagents were from PE Applied Biosystem.

N#Cc1c(-c2ccc(S(=O)(=O)NC(CF)CF)cn2)n(C2CCC2)c2cc(OC(F)F)ccc12 [Compound 31, 6-[3-cyano-1-cyclobutyl-6-(difluoromethoxy)-1H-indol-2-yl]-N-(1,3-difluoropropan-2-yl)pyridine-3-sulfonamide]
relative inhibition (logarithmic scale) of replicon RNA level (Compound 31 0.045 μM in combination with Cpd 10p 0.19 μM): −1.16
relative inhibition (logarithmic scale) of replicon RNA level (Compound 31 0.045 μM in combination with Cpd 10p 1.5 μM): −1.72
relative inhibition (logarithmic scale) of replicon RNA level (Compound 31 0.405 μM in combination with Cpd 10p 0.19 μM): −1.73
relative inhibition (logarithmic scale) of replicon RNA level (Compound 31 0.405 μM in combination with Cpd 10p 1.5 μM): −2.02

CC(C)(C)NC(=O)N[C@H](C(=O)N1C[C@H]2[C@@H]([C@H]1C(=O)NC(CC1CCC1)C(=O)C(N)=O)C2(C)C)C(C)(C)C (stereo partly drawn) [Cpd 10p, (1R,2S,5S)-N-(4-amino-1-cyclobutyl-3,4-dioxobutan-2-yl)-3-((S)-2-(3-tert-butylureido)-3,3-dimethylbutanoyl)-6,6-dimethyl-3-azabicyclo[3.1.0]hexane-2-carboxamide, reference compound]
relative inhibition (logarithmic scale) of replicon RNA level (Cpd 10p 0.19 μM alone (Compound 31 0 μM)): −0.11
relative inhibition (logarithmic scale) of replicon RNA level (Cpd 10p 1.5 μM alone (Compound 31 0 μM)): −1.52
